Test results taken from patent US20180179499A1, “BIOBASED PRODUCTION OF FUNCTIONALIZED ALPHA-SUBSTITUTED ACRYLATES AND C4-DICARBOXYLATES” (BIOAMBER INC., priority 2015, published 2018).
Substitutions are numbered along the chain they refer to. Names and notes keep the numbering of the source.

Experiments:
[1] = tested on: potential yeast hosts (I. orientalis, S. cerevisiae); experiment: Tolerance of potential yeast hosts: maximum concentration in which growth was detected; format: cell-based
Protocol: (§1) Two eukaryotic strains, I. orientalis and S. cerevisiae, were tested at pH 3 and pH 5. Three bacterial strains were tested using their individual optimal conditions. E. coli and C. glutamicum were tested at pH 8 and 30° C., and B. firmus was tested at pH 9 and 37° C. I. orientalis was grown in defined yeast media consisting of 5 g/L ammonium sulfate, 0.5 g/L magnesium sulfate heptahydrate, 3 g/L potassium phosphate monobasic, 10 g/L dextrose, 1 mL/L of 10% glycerol stock, 1 mL/L of 1000× trace. The 1000× trace stock solution contains 4 g/L ZnSO4.7H2O, 2 g/L FeSO4.7H2O, 1 g/L MnSO4.H2O, 0.2 g/L CuSO4.5H2O, and 0.8 mL/L H2SO4. S. cerevisiae was grown in buffered defined dextrose media consisting of 50 g/L dextrose, 5 g/L yeast extract, and 40 mL/L 25× DM salts. The 25× DM salt stock solution contains 125 g/L ammonium sulfate, 12.5 g/L magnesium sulfate heptahydrate, 75 g/L potassium phosphate monobasic, and 787.5 g/L water. The bacterial strains were grown in standard LB media consisting of 10 g/L bacto-tryptone, 5 g/L yeast extract, 10 g/L NaCl, and 20 g/L dextrose with addition of 20 g/L glucose.
(§2) Time points were taken over a period of at least 8 hours and up to 24 hours to calculate the rate of growth. Specific growth rate was determined by plotting the natural logarithm of cell number against time. Tolerance was determined by growth rate of cells in the presence of the compound as compared to in the absence of the compound.
(§3) Two eukaryotic strains, I. orientalis and S. cerevisiae, were tested for tolerance to the selected compounds at pH 3 and pH 5. The bacterial strains were grown at their individual optimal conditions, E coli and C. glutamicum at pH 8 and 30° C., and B. firmus and B. cohnii at pH 9 and 37° C. I. orientalis was grown in defined yeast media consisting of 5 g/L ammonium sulfate, 0.5 g/L magnesium sulfate heptahydrate, 3 g/L potassium phosphate monobasic, 10 g/L dextrose, 1 mL/L of 10% glycerol stock, 1 mL/L of 1000× trace. The 1000× trace stock solution contains 4 g/L ZnSO4.7H2O, 2 g/L FeSO4.7H2O, 1 g/L MnSO4.H2O, 0.2 g/L CuSO4.5H2O, and 0.8 mL/L H2SO4. S. cerevisiae was grown in buffered defined dextrose media consisting of 50 g/L dextrose, 5 g/L yeast extract, and 40 mL/L 25×DM salts. The 25×DM salt stock solution contains 125 g/L ammonium sulfate, 12.5 g/L magnesium sulfate heptahydrate, 75 g/L potassium phosphate monobasic, and 787.5 g/L water. The bacterial strains were grown in standard LB media consisting of 10 g/L bacto-tryptone, 5 g/L yeast extract, 10 g/L NaCl, and 20 g/L dextrose with addition of 20 g/L glucose.
as §2

[2] = tested on: potential bacterial hosts (E. coli, C. glutamicum, B. firmus, B. cohnii); experiment: Tolerance of potential bacterial hosts: highest concentration with growth observed; format: cell-based; settings: Table L
Protocol: as §1, §2, §3, §2

[3] = Synthase activity assay (DTNB, lysates of BL21 E. coli expressing the candidate); format: biochemical; settings: 0.5 mM hydroxypyruvate
Protocol: E coli optimized genes encoding synthases were synthesized and cloned into pTrcHisA (Life Technologies (formerly Invitrogen)). Synthase genes tested are found in Table G. Plasmids containing the optimized synthase genes were transformed into BL21 E. coli cells. Empty plasmid pTrcHisA was also transformed as a negative control. […]. Flasks were incubated at 30° C. at 250 rpm shaking for 2 hours, then protein production was induced with 0.2 mM IPTG and incubated for 4 more hours at 30° C. while shaking. Cells were harvested by centrifugation and pellets were stored at −80° C.
Activity of synthase candidates was assessed with an in vitro assay using DTNB (5,5′-Dithiobis(2-nitrobenzoic acid)) as an indicator. The enzyme activity was tested using either no substrate or hydroxypyruvate as the substrate. The DTNB interacts with the free thio created by the condensation of acetyl-CoA and the substrate present. Unless otherwise specified, all chemicals were purchased from Sigma-Aldrich Chemical Company, St. Louis, Mo.
Cells were lysed using mechanical disruption using a BeadBeater (BopSpec products, Bartlesville, Okla.) following the manufacturer's instructions. The cell lysate was partially clarified by centrifugation (14,000G for 5 minutes). Protein concentrations of the resulting clarified lysates were measured via BioRad total Protein assay using the manufacturer's instructions. Lysates were normalized by protein concentration in 100 mM Tris buffer. The normalized lysates were diluted 1 to 7 in 100 mM Tris buffer. 20 μl of lysate was added to each well for the 96-well plate assay. Each condition was performed in triplicate.
The reaction mixture contains 100 mM Tris pH 7.4, 5 mM MgSO4, 0.2 mM acetyl-CoA, 0.5 mM DTNB, 0.5 mM substrate, hydroxypyruvate. To start the reaction, 180 μl of reaction mix was added to each well already containing 20 μl lysate. The reactions in these microplates were monitored at 412 nm. Readings were taken every 9 seconds for 10 minutes and the data was used to calculate activities of each enzyme. Synthase activity was observed when hydroxypyruvate was the substrate as compared to cells containing empty vector (FIG. 20(a), Table G). Background absorbance as measured by the same reaction with no substrate present were subtracted. Error bars in the graphs reflect the standard deviations calculated for the averages for each condition performed in triplicate. Specific mutations change the activity of the enzymes tested (FIG. 20(b), Table H). Further enzyme engineering will improve specificity and activity of desired enzymatic reaction.

[4] = Table G, 0.2 mM acetyl-CoA, pH 7.4, no-substrate background subtracted
[5] = Table H, wild type and mutant synthases

For `CC(C)C(O)(CC(=O)O)C(=O)O` (centres unmarked) [2-isopropylmalic acid], the “Max conc (maximum concentration in which growth was detected)” value (from here on “Max conc”) ([1]; Table E) was 50 g/L.

With `CC(C)C(C(=O)O)C(O)C(=O)O` (centres unmarked) [3-isopropylmalic acid] the “Max conc” value ([1]; Table E) was 50 g/L.

In the case of `C=C(CO)C(=O)OCC` [Ethyl hydroxymethyl acrylate], the “Max conc” value ([1]; Table K) is reported as 20 g/L.

For `C=CC(=O)OCCO` [Hydroxyethyl acrylate], the “Max conc” value [2] was 20 g/L and the “Max conc” value ([1]; Table K) was 5 g/L.

With `C=CC(=O)OCO` [Hydroxymethyl acrylate] the “Max conc” value [2] was 20 g/L and the “Max conc” value ([1]; Table K) was 20 g/L.

In the case of `C=C1CCOC1=O` [MBL], the “Max conc” value [2] is reported as 5 g/L and the “Max conc” value ([1]; Table K) is reported as 5 g/L.

In the case of `C=C1CC(C)OC1=O` (centres unmarked) [MeMBL, methyl 2-methylene 4 butyrolactone], the “Max conc” value [2] is reported as 5 g/L and the “Max conc” value ([1]; Table K) is reported as 5 g/L.

In the case of “AvNifV: candidate synthase NifV, Azotobacter vinelandii, GenBank AAA22169”, the “Activity with hydroxy pyruvate” value [3, 4] is reported as 0.054 µmol/min/mg.

In the case of Methyl hydroxyethyl acrylate, the “Max conc” value [2] is reported as 20 g/L and the “Max conc” value ([1]; Table K) is reported as 5 g/L.

B1: LiLeuA: candidate synthase LeuA/CimA, Leptospira interogans, GenBank AAN49401 (protein, UniProt Q72RL9 1-501, looked up)
2-isopropylmalate synthase: MDLKDYVRIFDTTLRDGEQCPGAAMTENEKLEIASQLATMKVDIIEAGFPVSSPVQFQAVERIARETEGPMIAALARAMKADIEAASKALQPAKKRRIHTFIASSPIHMKYKLGKEPKEVLKMAVEAVTLCRQFVDDVEFSPEDATRSEPEFLRELCEAVIAAGATTINIPDTVGYTTPAEYGGLFKFLLSNVRGAEKIIFSAHCHNDLGLATANSLAAVQNGARQIECTINGIGERAGNTAMEEVVMAMRTRKDTFGIQTQIKTEEIARASYLVKTITGMLVQPNKAIVGANAFAHESGIHQDGVIKHRETYEIMKPETVGLSSNRMVLGRHSGRAGFKDRIVKLGFSPQVEELEAAYQRFLEIADRKKEIYDEDIRALFSEEARKSTGDRFQLEGFTVSTGTKSTPTAGVRILIDGHVREESATGDGPVDAIYKAIQKTTGMDPEVSRLVISPVTEGQDAMAEASVTLEYKGDRVVGKGSSTDIIEACSRAYISALNRL
In the case of B1, the “Activity with hydroxy pyruvate” value [3, 4] is reported as 0.045 µmol/min/mg.

B2: EcLeuA: candidate synthase LeuA, Escherichia coli, GenBank AAC73185 (protein, UniProt P09151 2-523, looked up)
2-isopropylmalate synthase: SQQVIIFDTTLRDGEQALQASLSVKEKLQIALALERMGVDVMEVGFPVSSPGDFESVQTIARQVKNSRVCALARCVEKDIDVAAESLKVAEAFRIHTFIATSPMHIATKLRSTLDEVIERAIYMVKRARNYTDDVEFSCEDAGRTPIADLARVVEAAINAGATTINIPDTVGYTMPFEFAGIISGLYERVPNIDKAIISVHTHDDLGLAVGNSLAAVHAGARQVEGAMNGIGERAGNCSLEEVIMAIKVRKDILNVHTAINHQEIWRTSQLVSQICNMPIPANKAIVGSGAFAHSSGIHQDGVLKNRENYEIMTPESIGLNQIQLNLTSRSGRAAVKHRMDEMGYKESEYNLDNLYDAFLKLADKKGQVFDYDLEALAFIGKQQEEPEHFRLDYFSVQSGSNDIATAAVKLACGEEVKAEAANGNGPVDAVYQAINRITEYNVELVKYSLTAKGHGKDALGQVDIVANYNGRRFHGVGLATDIVESSAKAMVHVLNNIWRAAEVEKELQRKAQHNENNKETV
With B2 the “Activity with hydroxy pyruvate” value [3, 4] was 0.022 µmol/min/mg.

B3: SpLys4mt1: Lys4 mutant D123N, Schizosaccharomyces pombe (protein, UniProt Q9Y823 1-418, looked up, variant D123N)
chain: MSVSEANGTETIKPPMNGNPYGPNPSDFLSRVNNFSIIESTLREGEQFANAFFDTEKKIQIAKALDNFGVDYIELTSPVASEQSRQDCEAICKLGLKCKILTHIRCHMDDARVAVETGVDGVNVVIGTSQYLRKYSHGKDMTYIIDSATEVINFVKSKGIEVRFSSEDSFRSDLVDLLSLYKAVDKIGVNRVGIADTVGCATPRQVYDLIRTLRGVVSCDIECHFHNDTGMAIANAYCALEAGATHIDTSILGIGERNGITPLGALLARMYVTDREYITHKYKLNQLRELENLVADAVEVQIPFNNYITGMCAFTHKAGIHAKAILANPSTYEILKPEDFGMSRYVHVGSRLTGWNAIKSRAEQLNLHLTDAQAKELTVRIKKLADVRTLAMDDVDRVLREYHADLSDADRITKEASA
For B3, the “Activity with hydroxy pyruvate” value [3, 5] was 0.004.

B4: SpLys4mt2: Lys4 mutant D123N, V125F, Schizosaccharomyces pombe (protein, UniProt Q9Y823 1-418, looked up, variant D123N V125F)
chain: B3 chain with V125F
For B4, the “Activity with hydroxy pyruvate” value [3, 5] was 0.009.

B5: SpLys4mt3: Lys4 mutant D123N, V125F, I194L, Schizosaccharomyces pombe (protein, UniProt Q9Y823 1-418, looked up, variant D123N V125F I194L)
chain: B3 chain with V125F, I194L
For B5, the “Activity with hydroxy pyruvate” value [3, 5] was 0.013.

B6: ScLys20: candidate synthase lys20, Saccharomyces cerevisiae, GenBank CAA58264 (protein, UniProt P48570 1-428, looked up)
Homocitrate synthase, …: MTAAKPNPYAAKPGDYLSNVNNFQLIDSTLREGEQFANAFFDTEKKIEIARALDDFGVDYIELTSPVASEQSRKDCEAICKLGLKAKILTHIRCHMDDAKVAVETGVDGVDVVIGTSKFLRQYSHGKDMNYIAKSAVEVIEFVKSKGIEIRFSSEDSFRSDLVDLLNIYKTVDKIGVNRVGIADTVGCANPRQVYELIRTLKSVVSCDIECHFHNDTGCAIANAYTALEGGARLIDVSVLGIGERNGITPLGGLMARMIVAAPDYVKSKYKLHKIRDIENLVADAVEVNIPFNNPITGFCAFTHKAGIHAKAILANPSTYEILDPHDFGMKRYIHFANRLTGWNAIKARVDQLNLNLTDDQIKEVTAKIKKLGDVRSLNIDDVDSIIKNFHAEVSTPQVLSAKKNKKNDSDVPELATIPAAKRTKPSA
In the case of B6, the “Activity with hydroxy pyruvate” value [3, 4] is reported as 0.095 µmol/min/mg.
